Experimental data: ChEMBL document CHEMBL4507276 (2021)

Assays:
[1] = molecular target: RAC-alpha serine/threonine-protein kinase (Homo sapiens) (UniProt P31749); details: Compound concentration 1000.0 nM
[2] = molecular target: T1, Serine/threonine-protein kinase BRSK1 (Homo sapiens) (UniProt Q8TDC3); details: Compound concentration 1000.0 nM
T1 sequence (whole entry): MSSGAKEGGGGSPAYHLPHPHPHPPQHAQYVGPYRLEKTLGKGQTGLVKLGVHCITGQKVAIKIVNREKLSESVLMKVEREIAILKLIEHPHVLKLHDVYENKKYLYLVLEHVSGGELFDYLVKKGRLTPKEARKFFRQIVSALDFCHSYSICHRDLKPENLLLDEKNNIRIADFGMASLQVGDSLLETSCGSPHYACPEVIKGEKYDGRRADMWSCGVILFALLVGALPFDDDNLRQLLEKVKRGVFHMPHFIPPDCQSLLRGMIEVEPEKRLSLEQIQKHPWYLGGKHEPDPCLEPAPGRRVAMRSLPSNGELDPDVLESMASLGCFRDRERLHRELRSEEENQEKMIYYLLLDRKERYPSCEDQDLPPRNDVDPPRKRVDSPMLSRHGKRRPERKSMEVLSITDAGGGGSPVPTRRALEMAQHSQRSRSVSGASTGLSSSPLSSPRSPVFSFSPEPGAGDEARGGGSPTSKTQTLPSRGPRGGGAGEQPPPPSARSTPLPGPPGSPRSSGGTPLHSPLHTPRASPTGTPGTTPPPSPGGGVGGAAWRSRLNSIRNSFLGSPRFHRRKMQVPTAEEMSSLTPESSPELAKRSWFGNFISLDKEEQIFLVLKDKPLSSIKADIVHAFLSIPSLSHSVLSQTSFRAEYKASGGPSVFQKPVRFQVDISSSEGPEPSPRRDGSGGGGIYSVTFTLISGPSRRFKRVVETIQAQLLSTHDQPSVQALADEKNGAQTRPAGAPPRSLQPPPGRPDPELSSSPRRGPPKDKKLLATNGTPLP

[3] = molecular target: Cyclin-dependent kinase 5 (Homo sapiens) (UniProt Q00535); details: Compound concentration 1000.0 nM
[4] = molecular target: Serine/threonine-protein kinase MRCK gamma (Homo sapiens) (UniProt Q6DT37); details: Compound concentration 1000.0 nM
[5] = molecular target: Fibroblast growth factor receptor 2 (Homo sapiens) (UniProt P21802); details: Compound concentration 1000.0 nM
[6] = molecular target: T2, Inhibitor of nuclear factor kappa-B kinase subunit alpha (Homo sapiens) (UniProt O15111); details: Compound concentration 1000.0 nM
T2 sequence (whole entry): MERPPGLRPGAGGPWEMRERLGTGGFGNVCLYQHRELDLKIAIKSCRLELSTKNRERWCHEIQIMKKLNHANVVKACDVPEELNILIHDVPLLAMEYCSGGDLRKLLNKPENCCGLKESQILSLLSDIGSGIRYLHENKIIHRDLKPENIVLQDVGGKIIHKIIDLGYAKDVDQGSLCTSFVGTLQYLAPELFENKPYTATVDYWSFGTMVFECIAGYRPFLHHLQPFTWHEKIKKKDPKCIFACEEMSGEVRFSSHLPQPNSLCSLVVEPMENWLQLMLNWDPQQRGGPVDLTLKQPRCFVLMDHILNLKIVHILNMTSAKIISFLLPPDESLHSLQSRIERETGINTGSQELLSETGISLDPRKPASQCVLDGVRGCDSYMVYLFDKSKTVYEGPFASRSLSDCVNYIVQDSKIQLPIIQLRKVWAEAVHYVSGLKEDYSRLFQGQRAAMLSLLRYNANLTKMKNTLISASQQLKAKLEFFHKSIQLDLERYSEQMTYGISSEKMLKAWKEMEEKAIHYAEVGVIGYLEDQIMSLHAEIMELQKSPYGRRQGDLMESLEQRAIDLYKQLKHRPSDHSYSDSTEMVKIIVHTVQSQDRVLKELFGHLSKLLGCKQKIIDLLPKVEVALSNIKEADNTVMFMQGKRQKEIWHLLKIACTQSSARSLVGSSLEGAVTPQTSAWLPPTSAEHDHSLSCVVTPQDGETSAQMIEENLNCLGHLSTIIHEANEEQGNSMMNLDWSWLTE

[7] = molecular target: Insulin receptor (Homo sapiens) (UniProt P06213); details: Compound concentration 1000.0 nM
[8] = molecular target: Tyrosine-protein kinase JAK1 (Homo sapiens) (UniProt P23458); details: Compound concentration 1000.0 nM
[9] = test system: Mast/stem cell growth factor receptor Kit (Homo sapiens), P10721 [L576P]; details: Compound concentration 1000.0 nM
[10] = molecular target: Serine/threonine-protein kinase PAK 1 (Homo sapiens) (UniProt Q13153); details: Compound concentration 1000.0 nM
[11] = molecular target: Serine/threonine-protein kinase PAK 3 (Homo sapiens) (UniProt O75914); details: Compound concentration 1000.0 nM
[12] = molecular target: Cyclin-dependent kinase 16 (Homo sapiens) (UniProt Q00536); details: Compound concentration 1000.0 nM
[13] = molecular target: Platelet-derived growth factor receptor alpha (Homo sapiens) (UniProt P16234); details: Compound concentration 1000.0 nM
[14] = test system: Phosphatidylinositol 4,5-bisphosphate 3-kinase catalytic subunit alpha isoform (Homo sapiens), P42336 [I800L]; details: Compound concentration 1000.0 nM
[15] = molecular target: Serine/threonine-protein kinase tousled-like 2 (Homo sapiens) (UniProt Q86UE8); details: Compound concentration 1000.0 nM
[16] = molecular target: Serine/threonine-protein kinase ULK1 (Homo sapiens) (UniProt O75385); details: Compound concentration 1000.0 nM
[17] = molecular target: D(1A) dopamine receptor (Homo sapiens) (UniProt P21728); details: Compound concentration 10.0 uM
[18] = molecular target: Histamine H1 receptor (Homo sapiens) (UniProt P35367); details: Compound concentration 10.0 uM

Chain of Platelet-derived growth factor receptor alpha (Homo sapiens) (P16234 whole entry, canonical isoform): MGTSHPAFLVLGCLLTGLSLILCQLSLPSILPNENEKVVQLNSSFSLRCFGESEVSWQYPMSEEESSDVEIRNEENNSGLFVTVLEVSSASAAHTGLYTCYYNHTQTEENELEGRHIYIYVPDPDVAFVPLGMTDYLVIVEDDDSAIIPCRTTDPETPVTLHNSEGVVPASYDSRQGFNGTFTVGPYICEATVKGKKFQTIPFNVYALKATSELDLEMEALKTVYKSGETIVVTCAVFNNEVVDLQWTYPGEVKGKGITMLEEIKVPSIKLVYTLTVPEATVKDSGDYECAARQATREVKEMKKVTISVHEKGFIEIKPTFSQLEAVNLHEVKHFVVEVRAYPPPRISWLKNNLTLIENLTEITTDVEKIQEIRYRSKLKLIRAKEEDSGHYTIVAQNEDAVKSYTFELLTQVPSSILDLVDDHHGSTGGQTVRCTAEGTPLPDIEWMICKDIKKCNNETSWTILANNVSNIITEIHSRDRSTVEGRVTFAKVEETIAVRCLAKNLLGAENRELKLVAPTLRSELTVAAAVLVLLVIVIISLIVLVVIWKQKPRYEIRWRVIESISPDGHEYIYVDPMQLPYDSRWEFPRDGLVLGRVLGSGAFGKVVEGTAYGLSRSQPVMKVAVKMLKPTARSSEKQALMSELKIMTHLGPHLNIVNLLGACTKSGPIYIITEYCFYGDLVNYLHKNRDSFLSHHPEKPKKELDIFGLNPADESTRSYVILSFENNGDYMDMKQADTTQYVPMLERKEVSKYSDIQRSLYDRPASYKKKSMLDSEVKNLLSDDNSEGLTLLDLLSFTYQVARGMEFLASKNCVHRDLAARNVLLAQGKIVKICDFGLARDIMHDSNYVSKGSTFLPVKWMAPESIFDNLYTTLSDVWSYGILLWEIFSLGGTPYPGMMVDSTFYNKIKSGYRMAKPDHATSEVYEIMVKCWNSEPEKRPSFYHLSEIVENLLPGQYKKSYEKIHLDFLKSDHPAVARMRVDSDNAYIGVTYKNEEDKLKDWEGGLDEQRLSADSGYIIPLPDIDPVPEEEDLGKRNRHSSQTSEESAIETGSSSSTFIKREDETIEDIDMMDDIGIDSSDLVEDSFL
Chain of Serine/threonine-protein kinase MRCK gamma (Homo sapiens) (Q6DT37 whole entry): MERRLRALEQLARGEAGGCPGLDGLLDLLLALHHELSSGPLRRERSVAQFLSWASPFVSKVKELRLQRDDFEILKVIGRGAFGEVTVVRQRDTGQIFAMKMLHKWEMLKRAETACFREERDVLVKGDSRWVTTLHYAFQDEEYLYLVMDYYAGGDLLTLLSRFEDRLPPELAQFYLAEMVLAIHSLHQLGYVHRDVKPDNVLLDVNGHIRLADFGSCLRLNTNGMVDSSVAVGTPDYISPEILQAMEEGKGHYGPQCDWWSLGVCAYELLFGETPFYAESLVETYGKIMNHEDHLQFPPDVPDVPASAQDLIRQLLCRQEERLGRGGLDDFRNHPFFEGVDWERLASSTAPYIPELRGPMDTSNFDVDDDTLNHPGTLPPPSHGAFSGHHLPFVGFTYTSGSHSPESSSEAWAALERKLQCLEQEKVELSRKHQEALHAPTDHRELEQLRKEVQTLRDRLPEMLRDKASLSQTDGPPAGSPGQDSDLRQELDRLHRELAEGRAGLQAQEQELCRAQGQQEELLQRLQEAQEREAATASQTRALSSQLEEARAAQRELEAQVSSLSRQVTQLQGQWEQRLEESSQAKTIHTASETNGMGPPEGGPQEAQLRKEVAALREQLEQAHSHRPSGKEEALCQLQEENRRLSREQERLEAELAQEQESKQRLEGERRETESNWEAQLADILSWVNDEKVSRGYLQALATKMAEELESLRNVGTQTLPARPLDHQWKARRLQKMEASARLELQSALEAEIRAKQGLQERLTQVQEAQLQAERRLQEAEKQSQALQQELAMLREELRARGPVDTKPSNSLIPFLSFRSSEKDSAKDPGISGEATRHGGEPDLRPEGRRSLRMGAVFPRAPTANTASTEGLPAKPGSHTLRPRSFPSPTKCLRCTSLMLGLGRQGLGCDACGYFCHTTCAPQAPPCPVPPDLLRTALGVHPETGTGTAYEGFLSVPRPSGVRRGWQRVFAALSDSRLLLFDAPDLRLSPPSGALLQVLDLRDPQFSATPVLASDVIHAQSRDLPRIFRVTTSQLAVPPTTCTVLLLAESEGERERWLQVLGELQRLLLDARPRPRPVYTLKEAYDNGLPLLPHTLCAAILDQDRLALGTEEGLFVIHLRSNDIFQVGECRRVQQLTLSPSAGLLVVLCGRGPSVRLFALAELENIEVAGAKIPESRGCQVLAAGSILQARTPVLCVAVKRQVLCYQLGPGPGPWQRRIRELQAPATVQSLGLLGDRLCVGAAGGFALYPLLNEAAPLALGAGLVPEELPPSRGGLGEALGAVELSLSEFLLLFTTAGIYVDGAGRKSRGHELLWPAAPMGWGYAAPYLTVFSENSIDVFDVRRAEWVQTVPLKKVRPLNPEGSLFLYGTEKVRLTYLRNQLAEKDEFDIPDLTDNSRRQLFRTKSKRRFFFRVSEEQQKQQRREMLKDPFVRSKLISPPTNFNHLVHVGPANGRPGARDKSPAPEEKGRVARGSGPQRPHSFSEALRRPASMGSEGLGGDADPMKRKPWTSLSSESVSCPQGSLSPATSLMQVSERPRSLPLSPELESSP
Chain of Serine/threonine-protein kinase ULK1 (Homo sapiens) (O75385 whole entry): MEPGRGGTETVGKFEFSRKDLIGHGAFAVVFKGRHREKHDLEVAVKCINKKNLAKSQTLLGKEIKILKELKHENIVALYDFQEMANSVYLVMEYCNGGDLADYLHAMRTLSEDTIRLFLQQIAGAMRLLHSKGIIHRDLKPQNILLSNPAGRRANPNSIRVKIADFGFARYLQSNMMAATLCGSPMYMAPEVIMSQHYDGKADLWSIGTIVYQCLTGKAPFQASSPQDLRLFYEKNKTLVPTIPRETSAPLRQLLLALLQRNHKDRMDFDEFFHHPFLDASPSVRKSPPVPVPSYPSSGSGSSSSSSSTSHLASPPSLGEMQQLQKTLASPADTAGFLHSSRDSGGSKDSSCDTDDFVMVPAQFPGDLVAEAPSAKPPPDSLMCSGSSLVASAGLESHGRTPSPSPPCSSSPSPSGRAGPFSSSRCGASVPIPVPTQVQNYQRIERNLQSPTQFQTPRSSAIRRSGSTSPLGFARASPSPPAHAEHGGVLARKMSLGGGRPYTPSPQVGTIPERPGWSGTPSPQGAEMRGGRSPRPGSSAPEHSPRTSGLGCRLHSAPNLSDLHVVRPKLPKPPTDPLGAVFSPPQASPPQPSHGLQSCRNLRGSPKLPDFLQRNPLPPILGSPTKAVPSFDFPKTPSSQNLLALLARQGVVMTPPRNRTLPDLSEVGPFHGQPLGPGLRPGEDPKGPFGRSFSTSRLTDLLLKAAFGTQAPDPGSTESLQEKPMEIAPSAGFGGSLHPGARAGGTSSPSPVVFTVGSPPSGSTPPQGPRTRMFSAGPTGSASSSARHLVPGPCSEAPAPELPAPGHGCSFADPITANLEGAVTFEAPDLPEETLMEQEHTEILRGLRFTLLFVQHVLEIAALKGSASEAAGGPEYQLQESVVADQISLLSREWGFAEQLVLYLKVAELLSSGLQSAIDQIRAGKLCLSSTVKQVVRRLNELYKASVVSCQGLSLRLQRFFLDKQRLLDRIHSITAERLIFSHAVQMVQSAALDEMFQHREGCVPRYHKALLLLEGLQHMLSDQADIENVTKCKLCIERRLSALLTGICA
Chain of D(1A) dopamine receptor (Homo sapiens) (P21728 whole entry): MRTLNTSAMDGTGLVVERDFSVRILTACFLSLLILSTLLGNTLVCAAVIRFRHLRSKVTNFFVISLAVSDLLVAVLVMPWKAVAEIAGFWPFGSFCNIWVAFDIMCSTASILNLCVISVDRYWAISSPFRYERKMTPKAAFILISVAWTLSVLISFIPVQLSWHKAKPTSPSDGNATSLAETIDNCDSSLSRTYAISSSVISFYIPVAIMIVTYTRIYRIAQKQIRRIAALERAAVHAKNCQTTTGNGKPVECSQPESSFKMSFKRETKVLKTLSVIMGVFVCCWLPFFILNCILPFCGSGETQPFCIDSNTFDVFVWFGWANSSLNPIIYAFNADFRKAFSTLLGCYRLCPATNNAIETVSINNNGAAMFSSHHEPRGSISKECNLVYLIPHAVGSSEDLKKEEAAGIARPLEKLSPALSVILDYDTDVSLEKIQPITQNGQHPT
Chain of Cyclin-dependent kinase 16 (Homo sapiens) (Q00536 whole entry): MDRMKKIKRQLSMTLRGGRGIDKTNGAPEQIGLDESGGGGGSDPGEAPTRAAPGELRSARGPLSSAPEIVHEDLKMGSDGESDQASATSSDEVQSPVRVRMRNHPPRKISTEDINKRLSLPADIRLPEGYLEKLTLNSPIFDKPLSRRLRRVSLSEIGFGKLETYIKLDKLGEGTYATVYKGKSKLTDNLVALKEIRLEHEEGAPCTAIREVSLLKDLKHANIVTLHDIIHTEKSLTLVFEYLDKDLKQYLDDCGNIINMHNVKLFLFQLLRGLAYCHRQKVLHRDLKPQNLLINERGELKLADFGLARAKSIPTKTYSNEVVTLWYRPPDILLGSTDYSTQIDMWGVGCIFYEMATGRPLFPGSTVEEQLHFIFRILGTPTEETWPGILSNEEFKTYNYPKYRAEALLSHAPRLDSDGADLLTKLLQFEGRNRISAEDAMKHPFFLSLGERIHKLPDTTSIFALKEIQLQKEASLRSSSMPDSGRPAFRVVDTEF
Chain of Cyclin-dependent kinase 5 (Homo sapiens) (Q00535 whole entry, looked up): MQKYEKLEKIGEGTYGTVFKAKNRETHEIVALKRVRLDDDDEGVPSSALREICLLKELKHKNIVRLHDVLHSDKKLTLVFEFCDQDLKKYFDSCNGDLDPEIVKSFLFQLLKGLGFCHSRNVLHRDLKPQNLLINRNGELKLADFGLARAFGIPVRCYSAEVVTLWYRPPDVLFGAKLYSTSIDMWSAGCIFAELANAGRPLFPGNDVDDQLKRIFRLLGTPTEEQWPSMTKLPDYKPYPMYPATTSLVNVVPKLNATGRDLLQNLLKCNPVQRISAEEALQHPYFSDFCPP

For `CN(C)C(=O)Cn1cc(-c2nc(C3(c4ccc(-c5cnc(N)nc5)cc4)CC3)no2)cn1` [BI 0153], the residual activity [1] was 97%, the residual activity [2] was 93% and the residual activity [3] was 100%. For the same molecule, the residual activity [4] was 82%, the residual activity [5] was 100% and the residual activity [6] was 100%. It also gave a residual activity [7] of 90%, a residual activity [8] of 76% and a residual activity [9] of 84%. It also gave a residual activity [10] of 100%, a residual activity [11] of 82% and a residual activity [12] of 80%. It also gave a residual activity [13] of 83%, a residual activity [14] of 91% and a residual activity [15] of 100%. The residual activity [16] was 75%, the inhibition [17] was -6.69% and the inhibition [18] was 8.78%.

For `CN(C)C(=O)Cn1cc(-c2nc([C@@](C)(c3ccc(-c4cnc(N)nc4)cc3)C3CC3)no2)cn1` [BI 665915], the residual activity [1] was 94%, the residual activity [2] was 98% and the residual activity [3] was 100%. For the same molecule, the residual activity [4] was 87%, the residual activity [5] was 85% and the residual activity [6] was 0%. It also gave a residual activity [7] of 89%, a residual activity [8] of 100% and a residual activity [9] of 63%. The residual activity [10] was 100%, the residual activity [11] was 87% and the residual activity [12] was 86%. The residual activity [13] was 100%, the residual activity [14] was 54% and the residual activity [15] was 100%. The residual activity [16] was 77%, the inhibition [17] was 4.55% and the inhibition [18] was 7.66%.
